#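 Results reflect a 48-hour exposure of cells in 96-well plates to compound at five concentrations. Abbreviation: GI50, concentration required for 50% inhibition of growth.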 Calls of active or inactive are those of the source. Cut-off read from the data, not from the text of the source: active = GI50 up to about 1.1 µM and inactive = higher.
# Columns and labels:
# Test in all cases: DTP human tumour cell line panel, 48 h
# [1] = system: UACC-257
# [2] = system: COLO 205
# [3] = system: NCI-H522
# [4] = system: MOLT-4
# [5] = system: MDA-MB-435
# [6] = system: K562
# [7] = system: 786-0
# [8] = system: HCC 2998
# [9] = system: T47D
# [10] = system: SR
# [11] = system: SK-MEL-5
# [12] = system: NCI-H460
# [13] = system: Malme-3M
# [14] = system: SK-MEL-28
# [15] = system: KM12
# [16] = system: SNB-75
# [17] = system: HL-60
# [18] = system: RXF 393
# [19] = system: LOX IMVI
Compound,GI50 [1],GI50 [2],GI50 [3],GI50 [4],GI50 [5],GI50 [6],GI50 [7],GI50 [8],GI50 [9],GI50 [10],GI50 [11],GI50 [12],GI50 [13],GI50 [14],GI50 [15],GI50 [16],GI50 [17],GI50 [18],GI50 [19]
Nc1ccc(C(=O)NN2C(=O)[C@H](Cl)C2c2ccc(Cl)cc2)cc1 (stereo partly drawn),1.74 µM (inactive),1.93 µM (inactive),2.03 µM (inactive),1.09 µM (active),1.84 µM (inactive),1.82 µM (inactive),1.32 µM (inactive),1.65 µM (inactive),1.85 µM (inactive),0.324 µM (active),1.93 µM (inactive),2.08 µM (inactive),2.21 µM (inactive),0.265 µM (active),1.5 µM (inactive),0.223 µM (active),1.91 µM (inactive),2.72 µM (inactive),–
OCCCCOC(c1ccccc1)(c1ccccc1)c1ccccc1,> 100 µM (inactive),> 100 µM (inactive),> 100 µM (inactive),> 100 µM (inactive),–,> 100 µM (inactive),> 100 µM (inactive),> 100 µM (inactive),–,> 100 µM (inactive),> 100 µM (inactive),> 100 µM (inactive),> 100 µM (inactive),> 100 µM (inactive),> 100 µM (inactive),67.5 µM (inactive),> 100 µM (inactive),> 100 µM (inactive),> 100 µM (inactive)
CC1[C@@H](OCc2ccccc2)COC(=O)N1Cc1ccccc1 (stereo partly drawn),68.4 µM (inactive),> 100 µM (inactive),–,33.3 µM (inactive),> 100 µM (inactive),60 µM (inactive),> 100 µM (inactive),–,–,> 100 µM (inactive),69.5 µM (inactive),–,> 100 µM (inactive),> 100 µM (inactive),> 100 µM (inactive),> 100 µM (inactive),–,–,> 100 µM (inactive)
COc1cc(Br)c(CC2(C#N)c3ccccc3C3C(N2C(=O)c2ccccc2)C3(Cl)Cl)cc1OC (stereo not drawn),15.8 µM (inactive),10.4 µM (inactive),3.52 µM (inactive),2.03 µM (inactive),–,5.7 µM (inactive),> 65.5 µM (inactive),20.9 µM (inactive),–,4.01 µM (inactive),2.94 µM (inactive),4.83 µM (inactive),> 65.5 µM (inactive),> 65.5 µM (inactive),23.1 µM (inactive),> 65.5 µM (inactive),1.51 µM (inactive),> 65.5 µM (inactive),> 65.5 µM (inactive)
NCCS(=O)(=O)O [TAURINE],> 100 µM (inactive),> 100 µM (inactive),> 100 µM (inactive),> 100 µM (inactive),> 100 µM (inactive),> 100 µM (inactive),> 100 µM (inactive),> 100 µM (inactive),> 100 µM (inactive),> 100 µM (inactive),> 100 µM (inactive),> 100 µM (inactive),> 100 µM (inactive),> 100 µM (inactive),> 100 µM (inactive),> 100 µM (inactive),> 100 µM (inactive),–,> 100 µM (inactive)
O=[N+]([O-])c1ccc2nc(Nc3ccccc3)c(Nc3ccccc3)nc2c1,2.15 µM (inactive),1.62 µM (inactive),0.369 µM (active),1.55 µM (inactive),1.66 µM (inactive),2.04 µM (inactive),1.49 µM (inactive),1.25 µM (inactive),2.63 µM (inactive),0.489 µM (active),1.49 µM (inactive),0.42 µM (active),1.84 µM (inactive),2.45 µM (inactive),1.3 µM (inactive),2 µM (inactive),9.31 µM (inactive),2.57 µM (inactive),1.58 µM (inactive)
Clc1nc(Cl)nc(Nc2cccc3ccccc23)n1,–,> 10 µM (inactive),> 10 µM (inactive),> 10 µM (inactive),> 10 µM (inactive),> 10 µM (inactive),–,> 10 µM (inactive),> 10 µM (inactive),> 10 µM (inactive),> 10 µM (inactive),> 10 µM (inactive),> 10 µM (inactive),> 10 µM (inactive),> 10 µM (inactive),> 10 µM (inactive),7.98 µM (inactive),> 10 µM (inactive),> 10 µM (inactive)
COC(=O)c1ccccc1CC(Cc1ccc2c(c1)CCC2)C(=O)OC (stereo not drawn),34.6 µM (inactive),> 100 µM (inactive),66.1 µM (inactive),31.8 µM (inactive),66.1 µM (inactive),95.1 µM (inactive),> 100 µM (inactive),> 100 µM (inactive),> 100 µM (inactive),36.9 µM (inactive),32.4 µM (inactive),> 100 µM (inactive),33.3 µM (inactive),> 100 µM (inactive),33.6 µM (inactive),98.4 µM (inactive),45.9 µM (inactive),> 100 µM (inactive),> 100 µM (inactive)
